Laboratory results published in PMC12078564 (Nature Communications, 2025).

Tests used:
CtCGT = assay: HPLC C-glycosylation assay, Michaelis-Menten fit; type: biochemical, Carthamus tinctorius; conditions: read-out: apparent Km; saturated UDP-Glc as sugar donor
[1] = biological target: Ct2OGD1 (2-oxoglutarate-dependent dioxygenase), purified recombinant, NHS-labelled (Carthamus tinctorius); assay: MST

Km (CtCGT) [µM] | Kd [1] [nM] | Molecule
284 |  | O=C(CCc1ccc(O)cc1)c1c(O)cc(O)c([C@@H]2O[C@H](CO)[C@@H](O)[C@H](O)[C@H]2O)c1O [1a, nothofagin]
1.86 |  | O=C(CCc1ccc(O)cc1)c1c(O)cc(O)cc1O [compound 1, phloretin]
 | 541 | CtCGT (flavonoid di-C-glycosyltransferase, UGT708U8), purified recombinant (enzyme)
